Test results reported in PubChem BioAssay (NCI).
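Five concentrations, 48 hours, 96-well plates. GI50 is the concentration that inhibits growth by half. TGI is the concentration that stops growth completely.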

Assays:
Experiment in all cases: NCI anticancer screen, dose series, 48 h
MDA-MB-435 = system: MDA-MB-435
SW-620 colon = system: SW-620 colon
SF-295 CNS = system: SF-295 CNS
SF-539 CNS = system: SF-539 CNS
SK-MEL-5 melanoma = system: SK-MEL-5 melanoma
NCI-H522 lung = system: NCI-H522 lung
NCI-H226 lung = system: NCI-H226 lung
CAKI-1 renal = system: CAKI-1 renal
SK-MEL-28 melanoma = system: SK-MEL-28 melanoma
UACC-257 melanoma = system: UACC-257 melanoma
M14 melanoma = system: M14 melanoma
MCF7 breast = system: MCF7 breast
K-562 leukemia = system: K-562 leukemia
OVCAR-8 ovarian = system: OVCAR-8 ovarian
SR leukemia = system: SR leukemia
NCI-H460 lung = system: NCI-H460 lung
IGROV1 ovarian = system: IGROV1 ovarian
ACHN renal = system: ACHN renal
HCC-2998 colon = system: HCC-2998 colon
CCRF-CEM leukemia = system: CCRF-CEM leukemia
SN12C renal = system: SN12C renal
SK-MEL-2 melanoma = system: SK-MEL-2 melanoma
KM12 colon = system: KM12 colon
HS 578T breast = system: HS 578T breast
HCT-15 colon = system: HCT-15 colon
DU-145 prostate = system: DU-145 prostate
RPMI-8226 leukemia = system: RPMI-8226 leukemia
BT-549 breast = system: BT-549 breast
NCI-H23 lung = system: NCI-H23 lung
UACC-62 melanoma = system: UACC-62 melanoma
SF-268 CNS = system: SF-268 CNS
HOP-92 NSCLC = system: HOP-92 NSCLC
T-47D breast = system: T-47D breast
PC-3 prostate = system: PC-3 prostate
UO-31 renal = system: UO-31 renal
SK-OV-3 ovarian = system: SK-OV-3 ovarian
SNB-75 CNS = system: SNB-75 CNS
HL-60(TB) leukemia = system: HL-60(TB) leukemia
OVCAR-4 ovarian = system: OVCAR-4 ovarian
COLO 205 colon = system: COLO 205 colon
A498 renal = system: A498 renal
OVCAR-3 ovarian = system: OVCAR-3 ovarian
A549 NSCLC = system: A549 NSCLC
MOLT-4 leukemia = system: MOLT-4 leukemia
LOX IMVI melanoma = system: LOX IMVI melanoma
HT29 colon = system: HT29 colon
NCI/ADR-RES ovarian = system: NCI/ADR-RES ovarian
MALME-3M melanoma = system: MALME-3M melanoma
786-0 renal = system: 786-0 renal
SNB-19 CNS = system: SNB-19 CNS
U251 CNS = system: U251 CNS
HOP-62 NSCLC = system: HOP-62 NSCLC
OVCAR-5 ovarian = system: OVCAR-5 ovarian
HCT-116 colon = system: HCT-116 colon
EKVX NSCLC = system: EKVX NSCLC
RXF 393 renal = system: RXF 393 renal
TK-10 renal = system: TK-10 renal
MDA-MB-231 breast = system: MDA-MB-231 breast

`C=CC[Se]C(=O)c1ccccc1OC(C)=O` showed a GI50 (MDA-MB-435) of 1.72 µM, a TGI (MDA-MB-435) of 3.35 µM and a GI50 (SW-620 colon) of 1.87 µM. It also gave a TGI (SW-620 colon) of 3.9 µM, a GI50 (SF-295 CNS) of 0.332 µM and a TGI (SF-295 CNS) of 1.32 µM. It also gave a GI50 (SF-539 CNS) of 1.47 µM, a TGI (SF-539 CNS) of 2.8 µM and a GI50 (SK-MEL-5 melanoma) of 1.94 µM. For the same compound, the TGI (SK-MEL-5 melanoma) was 4.09 µM, the GI50 (NCI-H522 lung) was 1.93 µM and the TGI (NCI-H522 lung) was 4.62 µM. The GI50 (NCI-H226 lung) was 2.62 µM, the TGI (NCI-H226 lung) was 6.44 µM and the GI50 (CAKI-1 renal) was 2.35 µM. For the same compound, the TGI (CAKI-1 renal) was 5.73 µM, the GI50 (SK-MEL-28 melanoma) was 1.85 µM and the TGI (SK-MEL-28 melanoma) was 3.53 µM. The GI50 (UACC-257 melanoma) was 2.09 µM, the TGI (UACC-257 melanoma) was 5 µM and the GI50 (M14 melanoma) was 1.58 µM. The TGI (M14 melanoma) was 3.06 µM, the GI50 (MCF7 breast) was 1.83 µM and the TGI (MCF7 breast) was 4.31 µM. The GI50 (K-562 leukemia) was 3.1 µM, the TGI (K-562 leukemia) was over 100 µM and the GI50 (OVCAR-8 ovarian) was 1.52 µM. It also gave a TGI (OVCAR-8 ovarian) of 3.56 µM, a GI50 (SR leukemia) of 2.41 µM and a TGI (SR leukemia) of 19.2 µM. It also gave a GI50 (NCI-H460 lung) of 0.36 µM, a TGI (NCI-H460 lung) of 1.84 µM and a GI50 (IGROV1 ovarian) of 1.7 µM. It also gave a TGI (IGROV1 ovarian) of 3.11 µM, a GI50 (ACHN renal) of 1.76 µM and a TGI (ACHN renal) of 3.21 µM. It also gave a GI50 (HCC-2998 colon) of 1.36 µM, a TGI (HCC-2998 colon) of 2.88 µM and a GI50 (CCRF-CEM leukemia) of 2.42 µM. It also gave a TGI (CCRF-CEM leukemia) of 7.06 µM, a GI50 (SN12C renal) of 1.61 µM and a TGI (SN12C renal) of 3.01 µM. It also gave a GI50 (SK-MEL-2 melanoma) of 2.05 µM, a TGI (SK-MEL-2 melanoma) of 4.33 µM and a GI50 (KM12 colon) of 0.947 µM. For the same compound, the TGI (KM12 colon) was 2.52 µM, the GI50 (HS 578T breast) was 1.83 µM and the TGI (HS 578T breast) was 6.24 µM. The GI50 (HCT-15 colon) was 2.12 µM, the TGI (HCT-15 colon) was 5.09 µM and the GI50 (DU-145 prostate) was 3.08 µM. The TGI (DU-145 prostate) was 11.6 µM, the GI50 (RPMI-8226 leukemia) was 2.22 µM and the TGI (RPMI-8226 leukemia) was 5.71 µM. The GI50 (BT-549 breast) was 1.66 µM, the TGI (BT-549 breast) was 3.2 µM and the GI50 (NCI-H23 lung) was 1.95 µM. It also gave a TGI (NCI-H23 lung) of 4.57 µM, a GI50 (UACC-62 melanoma) of 1.79 µM and a TGI (UACC-62 melanoma) of 3.35 µM. For the same compound, the GI50 (SF-268 CNS) was 2.49 µM, the TGI (SF-268 CNS) was 6.5 µM and the GI50 (HOP-92 NSCLC) was 2.28 µM. The TGI (HOP-92 NSCLC) was 6.12 µM, the GI50 (T-47D breast) was 2.45 µM and the TGI (T-47D breast) was 6.06 µM. It also gave a GI50 (PC-3 prostate) of 0.717 µM, a TGI (PC-3 prostate) of 2.48 µM and a GI50 (UO-31 renal) of 1.48 µM. For the same compound, the TGI (UO-31 renal) was 2.81 µM, the GI50 (SK-OV-3 ovarian) was 1.2 µM and the TGI (SK-OV-3 ovarian) was 2.54 µM. It also gave a GI50 (SNB-75 CNS) of 1.38 µM, a TGI (SNB-75 CNS) of 2.72 µM and a GI50 (HL-60(TB) leukemia) of 2.4 µM. The TGI (HL-60(TB) leukemia) was 6.54 µM, the GI50 (OVCAR-4 ovarian) was 1.68 µM and the TGI (OVCAR-4 ovarian) was 3.19 µM. The GI50 (COLO 205 colon) was 2.25 µM, the TGI (COLO 205 colon) was 5.01 µM and the GI50 (A498 renal) was 0.885 µM. For the same compound, the TGI (A498 renal) was 5.62 µM, the GI50 (OVCAR-3 ovarian) was 1.95 µM and the TGI (OVCAR-3 ovarian) was 3.51 µM. It also gave a GI50 (A549 NSCLC) of 0.769 µM, a TGI (A549 NSCLC) of over 100 µM and a GI50 (MOLT-4 leukemia) of 2.9 µM. For the same compound, the TGI (MOLT-4 leukemia) was 8.43 µM, the GI50 (LOX IMVI melanoma) was 1.86 µM and the TGI (LOX IMVI melanoma) was 3.78 µM. For the same compound, the GI50 (HT29 colon) was 2.65 µM, the TGI (HT29 colon) was over 100 µM and the GI50 (NCI/ADR-RES ovarian) was 1.6 µM. The TGI (NCI/ADR-RES ovarian) was 4.4 µM, the GI50 (MALME-3M melanoma) was 1.66 µM and the TGI (MALME-3M melanoma) was 3.38 µM. The GI50 (786-0 renal) was 1.88 µM, the TGI (786-0 renal) was 3.49 µM and the GI50 (SNB-19 CNS) was 0.493 µM. For the same compound, the TGI (SNB-19 CNS) was 1.66 µM.

With `COc1cc(/C=C2\N=C(c3ccccc3)N(c3nc4c(Cl)cc(Cl)cc4s3)C2=O)ccc1O` the TGI (MDA-MB-435) was over 100 µM, the TGI (SW-620 colon) was over 100 µM and the TGI (SF-295 CNS) was over 100 µM. The TGI (SF-539 CNS) was over 100 µM, the TGI (SK-MEL-5 melanoma) was over 100 µM and the TGI (CAKI-1 renal) was over 100 µM. The TGI (SK-MEL-28 melanoma) was over 100 µM, the TGI (UACC-257 melanoma) was over 100 µM and the TGI (M14 melanoma) was over 100 µM. The TGI (MCF7 breast) was over 100 µM, the TGI (U251 CNS) was 75.4 µM and the TGI (K-562 leukemia) was over 100 µM. For the same compound, the TGI (OVCAR-8 ovarian) was over 100 µM, the TGI (SR leukemia) was 29.6 µM and the TGI (NCI-H460 lung) was over 100 µM. The TGI (IGROV1 ovarian) was over 100 µM, the TGI (ACHN renal) was 82.2 µM and the TGI (HCC-2998 colon) was 37.8 µM. For the same compound, the TGI (HOP-62 NSCLC) was over 100 µM, the TGI (CCRF-CEM leukemia) was 30.4 µM and the TGI (SN12C renal) was 51.4 µM. For the same compound, the TGI (SK-MEL-2 melanoma) was 55.1 µM, the TGI (KM12 colon) was over 100 µM and the TGI (OVCAR-5 ovarian) was over 100 µM. For the same compound, the TGI (HCT-116 colon) was 59.7 µM, the TGI (HS 578T breast) was 57.2 µM and the TGI (HCT-15 colon) was over 100 µM. It also gave a TGI (DU-145 prostate) of over 100 µM, a TGI (RPMI-8226 leukemia) of 47.4 µM and a TGI (BT-549 breast) of 77.4 µM. For the same compound, the TGI (UACC-62 melanoma) was over 100 µM, the TGI (SF-268 CNS) was over 100 µM and the TGI (HOP-92 NSCLC) was 68 µM. The TGI (T-47D breast) was 72.6 µM, the TGI (EKVX NSCLC) was over 100 µM and the TGI (PC-3 prostate) was 38.3 µM. It also gave a TGI (UO-31 renal) of 69 µM, a TGI (RXF 393 renal) of 49.1 µM and a TGI (SK-OV-3 ovarian) of over 100 µM. The TGI (TK-10 renal) was over 100 µM, the TGI (SNB-75 CNS) was 75 µM and the TGI (HL-60(TB) leukemia) was 39.7 µM. For the same compound, the TGI (OVCAR-4 ovarian) was over 100 µM, the TGI (COLO 205 colon) was over 100 µM and the TGI (A498 renal) was 49 µM. For the same compound, the TGI (OVCAR-3 ovarian) was 91.9 µM, the TGI (A549 NSCLC) was over 100 µM and the TGI (MOLT-4 leukemia) was 43.3 µM. It also gave a TGI (LOX IMVI melanoma) of 53.6 µM, a TGI (HT29 colon) of 78.5 µM and a TGI (NCI/ADR-RES ovarian) of over 100 µM. The TGI (786-0 renal) was over 100 µM, the TGI (MDA-MB-231 breast) was over 100 µM and the TGI (SNB-19 CNS) was over 100 µM.
